Structures can show the parent of a compound that is named as a salt. Where two headings read alike, the source gives them in different places.
Key:
[1] = molecular target: T1, μ-opioid receptors (Rattus norvegicus, UniProt P33535); assay: Opioid receptor binding studies with [3H]DAMGO on rat's brain homogenisates
T1 construct: from tissue; host or cells: rat brain homogenate

[2] = test system: rats; assay: Analgesia test (rat tail flick test); type: in vivo; details: for sc/icv: ratio of tail flick ED50 sc to icv; for Analgesic effect (in percent) after 10 minutes / Analgesic effect (in percent) after 20 minutes / Analgesic effect (in percent) after 30 minutes / Analgesic effect (in percent) after 60 minutes / Analgesic effect (in percent) after 120 minutes / Analgesic effect (in percent) after 180 minutes: 3 0.5 μg/rat, 4 0.25 μg/rat, rats 120 g; for Analgesic effect (in percent) after 10 minutes / Analgesic effect (in percent) after 20 minutes / Analgesic effect (in percent) after 30 minutes / Analgesic effect (in percent) after 60 minutes / Analgesic effect (in percent) after 120 minutes: morphine 50 μg/rat
Method: A test on rats was applied (“rat tail flick test”). This test was carried out as previously described (Zs. Fürst et al., Eur. J. Pharmacol. 1993, Vol. 236, pp. 209-215).

[3] = in vivo; details: rat
[4] = test system: anaesthetised rats; details: rat, in vivo; for respiratory depression at analgesic doses (in words): sc
[5] = test system: rats with ligations around the ischias nerve; assay: Cold water allodynia test (thermal allodynia); type: in vivo, rat
Method: (§1) The tests involve models to test the effect of a substance on neuropathic pain.
(§2) For both tests ligations were applied around the ischias nerve (G. J. Bennett and Y. K. Xie, Pain 1988, Vol. 33, 87-107).
Thermal stimulation (cold water) was used to initiate withdrawal of the hind paw of the rats (200-300 g). After 5, 15 and 30 min (after application of the substance) the latency period of the withdrawal of the hind paw was studied (J. C. Hunter et al., Eur. J. Pharmacol., 1997, Vol. 324, 153-160). The substances to be investigated were applied via intraplant (ipl).

[6] = test system: rats with ligations around the ischias nerve; assay: Von Frey test (mechanical allodynia); type: in vivo, rat
Method: as §1, §2
A slight pressure (2 to 60 g) was exerted on the skin of the hind paw of the rats (200-250 g) using Von Frey hairs and the latency period of withdrawal of the hind paw was studied at various time intervals (5, 15, 30 and 60 minutes after the application of the substance). The substance to be investigated was applied via intraplant (ipl).

[7] = test system: carrageen-induced hyperalgesia on the right hind paw of rats; assay: Randall-Selitto test (hind-paw withdrawal latency, mechanical stimulation); type: in vivo, rat
Method: The Randall-Selitto Test (L. O. Randall and J. J. Selitto, Arch. Int. Pharmacodyn. 1957, Vol. 111, pp. 409-419) was applied to study the analgesic effect on carrageen-induced hyperalgesia on the right hind paw of rats. In this way the “hind-paw withdrawal latency” (HWL; latency period for withdrawing the right hind paw) with mechanical stimulation (e.g. I. Bileviciute-Ljungar and M. Spetea, Br. J. Pharmcol. 2001, Vol. 132, pp. 252-258) is measured.

[8] = central, rat tail flick test, intracerebroventricular application, read-out: ED50 (μg/kg, icv)
[9] = sc, rat tail flick test, subcutaneous application, read-out: ED50 (μg/kg, sc)
[10] = 100 μg/rat after subcutaneous application
[11] = peripherally acting opioid antagonist
[12] = 20 μg/kg, subcutaneous application

T1 sequence (P33535 whole entry): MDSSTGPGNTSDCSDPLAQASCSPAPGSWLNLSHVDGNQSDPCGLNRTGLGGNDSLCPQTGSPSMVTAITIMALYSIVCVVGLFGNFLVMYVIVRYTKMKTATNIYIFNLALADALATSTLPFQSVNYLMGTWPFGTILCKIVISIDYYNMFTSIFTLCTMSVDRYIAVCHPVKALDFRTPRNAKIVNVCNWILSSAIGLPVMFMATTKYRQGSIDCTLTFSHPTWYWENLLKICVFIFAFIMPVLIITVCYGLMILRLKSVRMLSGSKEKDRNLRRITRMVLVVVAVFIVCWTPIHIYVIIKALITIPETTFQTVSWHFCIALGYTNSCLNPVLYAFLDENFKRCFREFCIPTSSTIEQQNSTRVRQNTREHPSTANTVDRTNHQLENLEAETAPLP

CO[C@@]12CC[C@@H](N)[C@@H]3Oc4c(O)ccc5c4[C@@]31CCN(C)[C@@H]2C5
melting point: > 235 °C

O=C(O)CN[C@@H]1CC[C@@]2(OCCCc3ccccc3)[C@H]3Cc4ccc(O)c5c4[C@@]2(CCN3CC2CC2)[C@H]1O5 [Compound 38, {17-cyclopropylmethyl-4,5α-epoxy-3-hydroxy-14β-[(3-phenylpropyl)oxy]-morphinan-6β-ylamino}acetic acid dihydrochloride]
Ki [1]: 0.24 nM

CCOC(=O)CN[C@@H]1CC[C@@]2(OC)[C@H]3Cc4ccc(O)c5c4[C@@]2(CCN3C)[C@H]1O5 (as salt: hydrochloride) [Compound 23, (4,5α-epoxy-3-hydroxy-14β-methoxy-17-methylmorphinan-6β-ylamino)-acetic acid-ethylester dihydrochloride]
melting point: > 200 °C

CO[C@@]12CC[C@@H](N[C@@H](C)C(=O)O)[C@@H]3Oc4c(O)ccc5c4[C@@]31CCN(C)C2C5 [Compound 8, (2′S)-2′-(4,5α-epoxy-3-hydroxy-14β-methoxy-17-methylmorphinan-6β-ylamino)-propionic acid bis(tetrafluoroborate)]
ED50 [2, 8]: 0.67 µg/kg
analgesic activity (in words) ([2]; rat tail flick test): very high analgesic activity
sc/icv [2]: 746
ED50 [2, 9]: 500 µg/kg

CO[C@@]12CC[C@H](N[C@@H](Cc3ccccc3)C(=O)O)[C@@H]3Oc4c(O)ccc5c4[C@@]31CCN(C)C2C5 [Compound 11, (2′S)-2′-(4,5α-epoxy-3-hydroxy-14β-methoxy-17-methylmorphinan-6α-ylamino)-3′-phenylpropionic acid bis(tetrafluoroborate)]
Ki [1]: 0.95 nM

CCOC(=O)CN[C@@H]1CC[C@@]2(OC)[C@H]3Cc4ccc(O)c5c4[C@@]2(CCN3C)[C@H]1O5 [Compound 23, (4,5α-epoxy-3-hydroxy-14β-methoxy-17-methylmorphinan-6β-ylamino)-acetic acid-ethylester dihydrochloride]
Ki [1]: 0.8 nM

CO[C@@]12CC[C@H](N[C@@H](C)C(=O)O)[C@@H]3Oc4c(O)ccc5c4[C@@]31CCN(C)C2C5 [Compound 7, (2′S)-2′-(4,5α-epoxy-3-hydroxy-14β-methoxy-17-methylmorphinan-6α-ylamino)-propionic acid bis(tetrafluoroborate)]
ED50 [2, 8]: 0.75 µg/kg
analgesic activity (in words) ([2]; rat tail flick test): very high analgesic activity
sc/icv [2]: 133
ED50 [2, 9]: 100 µg/kg

CN1CC[C@]23c4c5ccc(O)c4O[C@H]2[C@@H](O)C=C[C@H]3[C@H]1C5 [Morphine, morphine, reference compound]
ED50 [2, 8]: 100 µg/kg
Analgesic effect (in percent) after 10 minutes ([2]; icv): 57%
Analgesic effect (in percent) after 20 minutes ([2]; icv): 91%
Analgesic effect (in percent) after 30 minutes ([2]; icv): 74%
Analgesic effect (in percent) after 60 minutes ([2]; icv): 59%
Analgesic effect (in percent) after 120 minutes ([2]; icv): 20%
sc/icv [2]: 19
ED50 [2, 9]: 1900 µg/kg
ED50 [3]: 0.083 mg/kg
ED50 ([3]; sc): 2.8 mg/kg
sc/icv [4]: 34

CO[C@@]12CC[C@@H](NC(=NC(=O)OC(C)(C)C)NC(=O)OC(C)(C)C)[C@@H]3Oc4c(O)ccc5c4[C@@]31CCN(C)C2C5 [Compound 16]
Ki ([1]; [3H]DAMGO as radio-ligand, rat's brain homogenisates, read-out: Ki (nM) (μ-receptors)): 0.61 nM

CO[C@@]12CC[C@@H](NC(=N)N)[C@@H]3Oc4c(O)ccc5c4[C@@]31CCN(C)[C@@H]2C5 [Compound 17, 4,5α-epoxy-6β-guanidinyl-14β-methoxy-17-methylmorphinan-3-ol dihydrochloride]
Ki [1]: 0.25 nM

CO[C@@]12CC[C@H](NCC(=O)OC(C)(C)C)[C@@H]3Oc4c(O)ccc5c4[C@@]31CCN(C)[C@@H]2C5 [Compound 1, (4,5α-epoxy-3-hydroxy-14β-methoxy-17-methylmorphinan-6α-ylamino)-acetic acid-tert.-butylester]
Ki [1]: 0.48 nM

CO[C@@]12CC[C@H](NCC(=O)O)[C@@H]3Oc4c(O)ccc5c4[C@@]31CCN(C)C2C5 [Compound 3, (4,5α-epoxy-3-hydroxy-14β-methoxy-17-methylmorphinan-6α-ylamino)-acetic acid sesqui(trifluoroacetate)]
ED50 [2, 8]: 0.49 µg/kg
passage of the blood-brain barrier (concluded from sc/icv figures) ([2]; conclusion from tail flick sc/icv ratio): only overcome the blood-brain barrier in a very restricted manner
Analgesic effect (in percent) after 10 minutes ([2]; icv): 46%
Analgesic effect (in percent) after 20 minutes ([2]; icv): 62%
Analgesic effect (in percent) after 30 minutes ([2]; icv): 59%
Analgesic effect (in percent) after 60 minutes ([2]; icv): 100%
Analgesic effect (in percent) after 120 minutes ([2]; icv): 100%
Analgesic effect (in percent) after 180 minutes ([2]; icv): 90%
analgesic activity (in words) ([2]; rat tail flick test): very high analgesic activity
sc/icv [2]: 176
ED50 [2, 9]: 86 µg/kg
ED50 [3]: 0.00083 mg/kg
ED50 ([3]; sc): 1 mg/kg
respiratory depression at analgesic doses (in words) [4]: not able to initiate a respiratory depression

CO[C@@]12CCC(NCC(=O)OC(C)(C)C)[C@@H]3Oc4c(O)ccc5c4[C@@]31CCN(C)C2C5 (stereo in doubt) [Compound 2, (4,5α-epoxy-3-hydroxy-14β-methoxy-17-methylmorphinan-6β-ylamino)-acetic acid-tert.-butylester]
Ki [1]: 1.3 nM

CCOC(=O)CN[C@H]1CC[C@@]2(OC)[C@H]3Cc4ccc(O)c5c4[C@@]2(CCN3C)[C@H]1O5 [Compound 22, (4,5α-epoxy-3-hydroxy-14β-methoxy-17-methylmorphinan-6α-ylamino)-acetic acid-ethylester dihydrochloride]
Ki [1]: 0.21 nM

CO[C@@]12CC[C@@H](NCC(=O)O)[C@@H]3Oc4c(O)ccc5c4[C@@]31CCN(C)C2C5 [Compound 4, (4,5α-epoxy-3-hydroxy-14β-methoxy-17-methylmorphinan-6β-ylamino)-acetic acid sesqui(trifluoroacetate)]
ED50 [2, 8]: 0.42 µg/kg
Analgesic effect (in percent) after 10 minutes ([2]; icv): 61%
Analgesic effect (in percent) after 20 minutes ([2]; icv): 74%
Analgesic effect (in percent) after 30 minutes ([2]; icv): 76%
Analgesic effect (in percent) after 60 minutes ([2]; icv): 100%
Analgesic effect (in percent) after 120 minutes ([2]; icv): 100%
Analgesic effect (in percent) after 180 minutes ([2]; icv): 90%
analgesic activity (in words) ([2]; rat tail flick test): very high analgesic activity
times as active as morphine after intracerebroventricular application (icv) ([2]; rat tail flick test, icv, relative to morphine): 238 times
times as active as morphine after subcutaneous application (sc) ([2]; rat tail flick test, sc, relative to morphine): 68 times
sc/icv [2]: 67
ED50 [2, 9]: 28 µg/kg
anti-allodynic activity (rise of at least 100% in latency of hind paw withdrawal taken as significant) [5, 10]: significant anti-allodynic activity
anti-allodynic effect after naloxone methiodide (ipl) [5, 11]: completely neutralise
ED50 [3]: 0.00042 mg/kg
ED50 ([3]; sc): 0.5 mg/kg
anti-allodynic activity (rise of at least 100% in latency of hind paw withdrawal taken as significant) [6, 10]: significant anti-allodynic activity
anti-allodynic effect after naloxone methiodide (ipl) [6, 11]: completely neutralise
analgesic activity (rise in HWL of at least 100% taken as significant) [7, 12]: significant analgesic activity
duration of analgesic effect [7, 12]: approx. 14 hours
passage of the blood-brain barrier (concluded from naloxone methiodide antagonism) ([7]; conclusion from the Randall-Selitto test): cannot overcome the blood-brain barrier
respiratory depression at analgesic doses (in words) [4]: not able to initiate a respiratory depression
